Measured values published in US10702526B2, “Inhibitors of immune checkpoint modulators and related methods” (eFFECTOR Therapeutics, Inc., priority 2015, dated 2020).
Entries after “also recorded” stand apart in the source; their conditions may differ.

Assays:
[1] = tested on: IL-2 production in Jurkat T cells; experiment: IL-2 ELISA on supernatants of activated Jurkat T cells; type: cell-based, human; details: Jurkat T cells with PHA and PMA, 48 hours
Description: To examine the effect of MNK-specific inhibitors on PD-1 expression, Jurkat cells (Clone E6.1, ATCC, transformed T cells) were used, which express PD-1 when activated through T cell receptor (TCR) signaling. Briefly, Jurkat cells were grown in 1×RPMI with 1× Pen/Strep, and 10% FBS, then about 3×10^6 Jurkat cells were activated in presence of 1 μg/mL PHA (Sigma) and 50 ng/mL PMA (Sigma). Test Cells were treated simultaneously with various concentrations of MNK-specific inhibitor Compound 107 (0, 0.01, 0.1, 1, 3 and 10 μM). After 48 hours, culture supernatants were harvested and examined via sandwich ELISA for the presence of IL-2 using human IL-2 ELISA DuoSet® (R&D Systems, Minneapolis, Minn.). […] After fixation, cells were washed twice with flow buffer and re-suspended in flow buffer and assessed for fluorescence using BD Accuri C6 flow cytometer. Data were analyzed using the C6 cytometer software (BD Biosciences, San Jose, Calif.).

CT26 tumor = CT26 tumor re-challenge of previously treated mice; type: in vivo, mouse
Description: Previously treated allograft mice that responded to therapy or were tumor-free from each treatment group (8 days post-treatment) were tested for development of long-term immune memory by re-implanting new CT26 tumors and assessing for tumor growth compared to naïve BALB/c mice. Briefly, treated mice were re-implanted and naïve were implanted for the first time with tumor cells in the left flank region in 0.1 ml of growth media and an equal 0.1 ml volume ratio of Matrigel® matrix (1:1 volume to volume ratio), as before. Tumors in these untreated mice were measured following implantation as described herein.

[2] = tested on: CT26 (mouse colon carcinoma) tumor; experiment: CT26 colon carcinoma allograft tumor model in BALB/c mice; type: in vivo
Description: To evaluate the efficacy of a MNK-specific inhibitor in cancer, an in vivo allograft tumor model was used. Briefly, CT26 (mouse colon carcinoma) cells grown in DMEM supplemented with 10% FBS were harvested during exponential growth and counted for tumor inoculation in immune competent BALB/c mice. Each mouse was inoculated with 0.3×10^6 CT26 tumor cells in the right flank region in a 0.2 ml volume comprising a 1:1 ratio (volume to volume) of cells in growth media (0.1 ml) and Matrigel® matrix (0.1 ml) (BD Biosciences, San Jose Calif.). Tumors were allowed to grow to 100-200 mm^3 prior to study initiation. Before beginning treatment, all animals were weighed and tumor volumes measured using a caliper. Since the tumor volume can affect the effectiveness of any given treatment, mice were randomly assigned into vehicle and test article treatment groups after tumors had reached a similar size. Each study group contained 8 mice, with each group receiving one of the following treatments: (1) Compound 107 in 10% 1-methyl-2-pyrrolidinone and 90% propylene glycol and given at a dose of 1 mg/kg orally, once a day; (2) anti-PD1 (BioXcell, Lebanon, N.H.) in PBS and given at a dose of 0.5 mg/mouse intraperitoneally, once every four days (as described by Wei et al., PLoS One 8:e84927, 2013); (3) a combination of Compound 107 at 1 mg/kg orally, once a day and anti-PD1 at 0.5 mg/mouse intraperitoneally, once every four days; (4) vehicle only control.
During the study, tumor size (for subcutaneous implants) was measured in length and width with a caliper twice a week. The tumor volume was calculated by the formula L×W×W/2 according to NCI standards. Tumor growth inhibition (TGI %) is an indication of anti-tumor effectiveness, which is expressed as follows: TGI (%)=100×(1−(ΔT/ΔC)). ΔT and ΔC were the change in mean tumor volume of the treated and control groups, relative to mean tumor volume at the start of treatment. All experiments continued until group mean tumor volume reached about 2000 to 2,500 mm^3 in size. […] Also, the body weight for each mouse was collected at least once prior to the study start, and twice a week during the study. Body weight change is an indication of tolerability, so percent body weight change is calculated as follows: body weight change (%)=100×(body weightend−body weightstart)/body weightstart. Mice were also observed daily for mortality, mobility, hunched posture, piloerection, or other signs of distress while dosing. If a mouse lost greater than 20% body weight due to toxicity, or the combination of toxicity and tumor burden, it was euthanized. If there was apparent toxicity, the mice were taken off treatment and clinical observation and body weight measurement were done daily.

PD-L1 = PD-L1 expression in tumor cell lines (Western blot); type: cell-based, human; details: MDA-MB-231, HBL-1, A549, MDA-MB-361, AMO-1; 0.01-10 μM, 48 hours, vs DMSO
[3] = tested on: IL-10 production in primary T cells; experiment: IL-10 production by activated primary T cells; type: cell-based, human
[4] = 15 days after initiation of dosing
[5] = 22 days after initiation of dosing

Cc1cc(Nc2cc(N)ncn2)c(=O)n2c1C(=O)NC21CCCCC1.Cl [Compound 107]
IL-2 production [1]: did not alter cytokine production; also recorded: did not detectably alter IL-2 production
Mean Tumor Volume (mm^3) ± SEM (CT26 tumor; 8 days after tumor implant): 22.4 ± 4.5 mm^3
Tumor Formation (CT26 tumor; animals with measurable tumor / group, no further drug treatment): 0/4
Mean Tumor Volume (mm^3) ± SEM [2, 4]: 522.3 ± 174.4; mm^3
Tumor Growth Inhibition (% TGI) [2, 4]: about 34%
Tumor Growth Inhibition (% TGI) ([2]; 15 days after initiation of dosing, listed as Cmpd 107): 34%
Mean Tumor Volume (mm^3) ± SEM [2, 5]: 1260.8 ± 499.1 mm^3
Tumor Growth Inhibition (% TGI) [2, 5]: about 55%
Tumor Growth Inhibition (% TGI) ([2]; 22 days after initiation of dosing, listed as Cmpd 107): 54%
Body Weight Change Average % ([2]; final day of study (day 22)): 13.9%
expression of PD-L1 (PD-L1): reduced in a dose dependent manner
% IL-10 Inhibition [3]: ++++ (++++ = 75-100%)
expression/production of IL-10 [3]: inhibited
inhibition at 10 µM ([3]; Homo sapiens, T-cell, 10 μM, read-out: maximum inhibition of the production of IL-10): 96%
